Data set [1] concerns HepG-2 human hepatocellular carcinoma cells. As to the kind of experiment: MTT assay, proliferation of HepG-2 cells. It is filed as cell-based. The following applies: Homo sapiens, HepG2, 72 h incubation, mean of three independent experiments. In outline: (§1)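 HepG-2 and normal L-O2 liver cells in DMEM with 10% FBS were seeded and, after 12 h, exposed to graded compound concentrations for 72 h at 37 °C. Viability was read by MTT (4 h, formazan dissolved in DMSO, OD 570 nm), and IC50 values were calculated from these readings.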

The subject of data set [2] is L-O2 human normal liver cells. Put plainly: MTT assay, toxicity against L-O2 normal cells. It is filed as cell-based. The note with it: Homo sapiens, 72 h incubation, mean of three independent experiments. In outline:
as §1

A further data set concerns HepG-2 cells. As to the kind of experiment: Cell apoptosis assay, Annexin-V/PI flow cytometry. The following applies: HepG-2, 48 h, 0, 1 and 2 µM. In kind it is cell-based, human. How it is done:
HepG-2 cells were seeded into a 24-well plate with 5 × 10^4/well/1 mL. After 12 h, cells were treated with compound 10b at different concentrations for 48 h. The cells were collected, washed with cold PBS, and stained with Annexin-V/PI according to the manufacturer’s instructions. Then, the cells were analyzed with flow cytometry.

In a further data set the test system is STAT3. As to the kind of experiment: Western blot assay, STAT3. It is filed as cell-based, human. The following applies: HepG-2, 24 h, different concentrations. On the procedure: (§2) HepG-2 cells were treated with compound 10b for 24 h, and the cell lysates were collected. Then, the total protein was separated by SDS-PAGE and transferred to PVDF membranes. The membranes were incubated with primary antibodies (1:1000) at 4 °C overnight. After being washed with PBST (PBS + 0.5% Tween 20) 5 times, the membranes were incubated with HRP-conjugated secondary antibodies (1:5000 dilution) for 2 h at room temperature. The membranes were then washed with PBST 5 times and the protein blots were detected by ECL chemiluminescence.

The next data set deals with P-STAT3. As to the kind of experiment: Western blot assay, P-STAT3. In kind it is cell-based, human. The note with it: HepG-2, 24 h, dose-dependent. How it is done: as §2
On the technique in general: In western blotting, separated proteins are transferred to a membrane and probed.

A further data set has as its system Bax. As to the kind of experiment: Western blot assay, Bax. It is filed as cell-based, human. The note with it: HepG-2, 24 h. How it is done:
as §2

The subject of the next data set is Bim. Put plainly: Western blot assay, Bim. In kind it is cell-based, human. The note with it: HepG-2, 24 h. On the procedure: as §2
The test system of another data set is Bcl-2. Put plainly: Western blot assay, Bcl-2. The note with it: HepG-2, 24 h. It is filed as cell-based, human. How it is done: as §2
The next data set deals with caspase 3. Put plainly: Western blot assay, caspase 3. It is filed as cell-based, human. The note with it: HepG-2, 24 h. On the procedure:
as §2

Another data set relates to Balb/C mice. As to the kind of experiment: In vivo acute toxicity assay. The following applies: intravenous injection; for percentage of death: three mice. How it is done:
To evaluate the toxicity of compound 10b, an acute toxicity assay was performed using Balb/C mice.
Five-week-old Balb/C mice were purchased from the Chinese Academy of Sciences and maintained under specific pathogen free (SPF) conditions. […] The control group mice were treated with vehicle buffer intravenously. […] The compound 10b group mice were treated with compound 10b at doses of 2 mg/kg, 5 mg/kg, 10 mg/kg, 20 mg/kg, and 50 mg/kg respectively (three mice each dose). The clinical symptoms, deaths, and body weight were observed and recorded.

Turning to `CC(=O)OC(C)(C)/C=C/C(=O)[C@](C)(O)C1[C@H](OC(=O)CCC(=O)OCCCOc2no[n+]([O-])c2S(=O)(=O)c2ccccc2)C[C@@]2(C)C3CC=C4C(CC(O)C(=O)C4(C)C)[C@]3(C)C(=O)C[C@]12C` (stereo partly drawn) [Compound 10b, 4-(3-((4-(((9R,13R,14S,16R)-17-((R,E)-6-Acetoxy-2-hydroxy-6-methyl-3-oxohept-4-en-2-yl)-2-hydroxy-4,4,9,13,14-pentamethyl-3,11-dioxo-2,3,4,7,8,9,10,11,12,13,14,15,16,17-tetradecahydro-1H-cyclopenta[a]phenanthren-16-yl)oxy)-4-oxobutanoyl)oxy)propoxy)-3-(phenylsulfonyl)-1,2,5-oxadiazole 2-oxide], the IC50 (usually the concentration needed to halve the response being measured) was found to be 0.63 ± 0.29 µM in data set [1] and 2.97 ± 0.23 µM in data set [2]. Moreover, the “induction of cell apoptosis” value in the data set with HepG-2 cells is “significantly induced cell apoptosis in a dose-dependent manner”. For the same compound, the “total expression of STAT3” value in the data set with STAT3 is “remained little changed”. Further, the “level of P-STAT3” value with P-STAT3 is reported as “clearly inhibited”. Besides, the “expression of Bax” value in the data set on Bax is reported as “strongly increased”. In addition, in the data set on Bim, the “expression of Bim” value is “strongly increased”. The “expression of Bcl-2” value in the data set on Bcl-2 is recorded as “substantially diminished”. The “level of caspase 3” value with caspase 3 is “decreased”. Besides, the percentage of death was 0/3 in the data set with Balb/C mice (2 mg/kg); 0/3 in the data set on Balb/C mice (5 mg/kg); 0/3 in the data set on Balb/C mice (10 mg/kg); 0/3 with Balb/C mice (20 mg/kg); 1/3 in the data set with Balb/C mice (50 mg/kg). Besides, the body weight change entry with Balb/C mice (different doses (2-50 mg/kg), compared to the vehicle group) was “did not change”.
In the case of `CC(=O)OC(C)(C)/C=C/C(=O)[C@](C)(O)C1[C@H](OC(=O)CCC(=O)OCCCCCCCCCCCOc2no[n+]([O-])c2S(=O)(=O)c2ccccc2)C[C@@]2(C)C3CC=C4C(CC(O)C(=O)C4(C)C)[C@]3(C)C(=O)C[C@]12C` (stereo partly drawn) [Compound 10j, 4-((11-((4-(((9R,13R,14S,16R)-17-((R,E)-6-Acetoxy-2-hydroxy-6-methyl-3-oxohept-4-en-2-yl)-2-hydroxy-4,4,9,13,14-pentamethyl-3,11-dioxo-2,3,4,7,8,9,10,11,12,13,14,15,16,17-tetradecahydro-1H-cyclopenta[a]phenanthren-16-yl)oxy)-4-oxobutanoyl)oxy)undecyl)oxy)-3-(phenylsulfonyl)-1,2,5-oxadiazole 2-oxide], the values for the IC50 in data set [1] and in data set [2] were 10.3 ± 1.11 µM and 6.69 ± 3.95 µM, respectively.
As for `CC(=O)OC(C)(C)/C=C/C(=O)[C@](C)(O)C1[C@H](OC(=O)CCC(=O)OC/C=C/COc2no[n+]([O-])c2S(=O)(=O)c2ccccc2)C[C@@]2(C)C3CC=C4C(CC(O)C(=O)C4(C)C)[C@]3(C)C(=O)C[C@]12C` (stereo partly drawn) [Compound 10l, 4-(((E)-4-((4-(((9R,13R,14S,16R)-17-((R,E)-6-Acetoxy-2-hydroxy-6-methyl-3-oxohept-4-en-2-yl)-2-hydroxy-4,4,9,13,14-pentamethyl-3,11-dioxo-2,3,4,7,8,9,10,11,12,13,14,15,16,17-tetradecahydro-1H-cyclopenta[a]phenanthren-16-yl)oxy)-4-oxobutanoyl)oxy)but-2-en-1-yl)oxy)-3-(phenylsulfonyl)-1,2,5-oxadiazole 2-oxide], the IC50 in [1] was determined as 1.01 ± 0.4 µM; in data set [2], 2.72 ± 0.38 µM.
Take `CC(=O)OC(C)(C)/C=C/C(=O)[C@](C)(O)C1[C@H](OC(=O)C=Cc2ccccc2)C[C@@]2(C)C3CC=C4C(C[C@H](O)C(=O)C4(C)C)[C@]3(C)C(=O)C[C@]12C` (stereo partly drawn) [Compound 3o, (2S,9R,13R,14S,16R)-17-((R,E)-6-Acetoxy-2-hydroxy-6-methyl-3-oxohept-4-en-2-yl)-2-hydroxy-4,4,9,13,14-pentamethyl-3,11-dioxo-2,3,4,7,8,9,10,11,12,13,14,15,16,17-tetradecahydro-1H-cyclopenta[a]phenanthren-16-yl cinnamate]: the IC50 is 3.31 ± 0.24 µM in data set [1] and 9.59 ± 2.38 µM in [2].
The matching figures for `CC(=O)OC(C)(C)C=CC(=O)C(C)(O)C1C(OC(=O)CCC(=O)NCCOc2no[n+]([O-])c2S(=O)(=O)c2ccccc2)CC2(C)C3CC=C4C(CC(O)C(=O)C4(C)C)C3(C)C(=O)CC12C` [Compound 9a, 3-((l1-oxidanyl)(oxo)(phenyl)-l5-sulfanyl)-4-(2-(4-(((9R,13R,14S,16R)-17-((R,E)-6-acetoxy-2-hydroxy-6-methyl-3-oxohept-4-en-2-yl)-2-Hydroxy-4,4,9,13,14-pentamethyl-3,11-dioxo-2,3,4,7,8,9,10,11,12,13,14,15,16,17-tetradecahydro-1H-cyclopenta[a]phenanthren-16-yl)oxy)-4-oxobutanamido)ethoxy)-1,2,5-oxadiazole 2-oxide]: 0.46 ± 0.14 µM and 0.69 ± 0.43 µM.
In the case of `COc1cccc2c1C(=O)c1c(O)c3c(c(O)c1C2=O)C[C@@](O)(C(=O)CO)C[C@@H]3O[C@H]1C[C@H](N)[C@H](O)[C@H](C)O1` [ADR, adriamycin, reference compound], the 50% inhibitory concentration (IC50) in [1] was 0.3 ± 0.05 µM; in data set [2] it was 0.041 ± 0.013 µM.
For the compound `CC(=O)OC(C)(C)/C=C/C(=O)[C@](C)(O)C1[C@H](OC(=O)CCCCN(C)C(=O)OC(C)(C)C)C[C@@]2(C)C3CC=C4C(C[C@H](O)C(=O)C4(C)C)[C@]3(C)C(=O)C[C@]12C` (stereo partly drawn) [Compound 3e, (2S,9R,13R,14S,16R)-17-((R,E)-6-Acetoxy-2-hydroxy-6-methyl-3-oxohept-4-en-2-yl)-2-hydroxy-4,4,9,13,14-pentamethyl-3,11-dioxo-2,3,4,7,8,9,10,11,12,13,14,15,16,17-tetradecahydro-1H-cyclopenta[a]phenanthren-16-yl 5-((tert-butoxycarbonyl)(methyl)amino)pentanoate], the 50% inhibitory concentration (IC50) turned out to be 9.28 ± 0.37 µM in data set [1] and 5.5 ± 2.48 µM in data set [2].
The matching figures for `CC(=O)OC(C)(C)/C=C/C(=O)[C@](C)(O)C1[C@H](OC(=O)CCC(=O)NCCCOc2no[n+]([O-])c2S(=O)(=O)c2ccccc2)C[C@@]2(C)C3CC=C4C(CC(O)C(=O)C4(C)C)[C@]3(C)C(=O)C[C@]12C` (stereo partly drawn) [Compound 9b, 4-(3-(4-(((9R,13R,14S,16R)-17-((R,E)-6-Acetoxy-2-hydroxy-6-methyl-3-oxohept-4-en-2-yl)-2-hydroxy-4,4,9,13,14-pentamethyl-3,11-dioxo-2,3,4,7,8,9,10,11,12,13,14,15,16,17-tetradecahydro-1H-cyclopenta[a]phenanthren-16-yl)oxy)-4-oxobutanamido)propoxy)-3-(phenylsulfonyl)-1,2,5-oxadiazole 2-oxide]: 0.53 ± 0.01 µM and 0.8 ± 0.4 µM.
The matching figures for `CC(=O)OC(C)(C)/C=C/C(=O)[C@](C)(O)C1[C@H](OC(=O)CCC(=O)OCc2ccc(COc3no[n+]([O-])c3S(=O)(=O)c3ccccc3)cc2)C[C@@]2(C)C3CC=C4C(CC(O)C(=O)C4(C)C)[C@]3(C)C(=O)C[C@]12C` (stereo partly drawn) [Compound 10o, 4-((4-(((4-(((9R,13R,14S,16R)-17-((R,E)-6-Acetoxy-2-hydroxy-6-methyl-3-oxohept-4-en-2-yl)-2-hydroxy-4,4,9,13,14-pentamethyl-3,11-dioxo-2,3,4,7,8,9,10,11,12,13,14,15,16,17-tetradecahydro-1H-cyclopenta[a]phenanthren-16-yl)oxy)-4-oxobutanoyl)oxy)methyl)benzyl)oxy)-3-(phenylsulfonyl)-1,2,5-oxadiazole 2-oxide]: 1.02 ± 0.28 µM and 3 ± 0.26 µM.
The like results for `CC(=O)OC(C)(C)/C=C/C(=O)[C@](C)(O)C1[C@H](OC(=O)C2CCCC2)C[C@@]2(C)C3CC=C4C(C[C@H](O)C(=O)C4(C)C)[C@]3(C)C(=O)C[C@]12C` (stereo partly drawn) [Compound 3c, (2S,9R,13R,14S,16R)-17-((R,E)-6-Acetoxy-2-hydroxy-6-methyl-3-oxohept-4-en-2-yl)-2-hydroxy-4,4,9,13,14-pentamethyl-3,11-dioxo-2,3,4,7,8,9,10,11,12,13,14,15,16,17-tetradecahydro-1H-cyclopenta[a]phenanthren-16-yl cyclopentanecarboxylate] were, in that order, 2.45 ± 1.75 µM and 2.37 ± 0.09 µM.

(Values after PMC6321601 (Molecules, 2018).)
